Data set [1] can be described thus: Half life in Sprague-Dawley rat at 5.0 mg/kg, ig measured for 15 min to 72 hrs by LC-MS/MS analysis. It is filed as ADME, organism-based. The settings on record: in vivo, po.
Data set [2] in a line: AUC (0 to infinity) in Sprague-Dawley rat at 5.0 mg/kg, ig measured for 15 min to 72 hrs by LC-MS/MS analysis. It is filed as ADME, organism-based. Also on record: dose 5 mg/kg, time infinity, route intragastric. The settings on record: in vivo, po.
A short description of data set [3]: Mean residence time in Sprague-Dawley rat at 1.0 mg/kg, iv measured for 5 min to 72 hrs by LC-MS/MS analysis. It is filed as ADME, organism-based. The conditions noted are these: in vivo.
Data set [4] addresses Vascular endothelial growth factor receptor 1 (Homo sapiens) (UniProt P17948). The experiment in a line: Inhibition of recombinant human GST-tagged FLT1 catalytic domain (781 to 1338 residues) expressed in baculovirus expression system at 1 uM using biotin as substrate preincubated for 5 mins followed by substrate addition and measured after 30 to 60 mins in presence of ATP by HTRF assay relative to control. Background: Time-resolved FRET reads energy transfer from a long-lived donor to a nearby acceptor.

In data set [5] the target is Vascular endothelial growth factor receptor 3 (Homo sapiens, UniProt P35916). Briefly: Inhibition of recombinant human GST-tagged FLT4 catalytic domain (800 to 1297 residues) expressed in baculovirus expression system at 1 uM using biotin as substrate preincubated for 5 mins followed by substrate addition and measured after 30 to 60 mins in presence of ATP by HTRF assay relative to control.

In data set [6] the target is Inhibitor of nuclear factor kappa-B kinase subunit beta (Homo sapiens) (UniProt O14920). The experiment in a line: Inhibition of recombinant full length human GST-tagged IKBKB expressed in baculovirus expression system at 1 uM using biotin as substrate preincubated for 5 mins followed by substrate addition and measured after 30 to 60 mins in presence of ATP by HTRF assay relative to control.

Data set [7] addresses Tyrosine-protein kinase JAK1 (Homo sapiens) (UniProt P23458). The experiment in a line: Inhibition of recombinant full length human GST-tagged JAK1 expressed in baculovirus expression system at 1 uM using biotin as substrate preincubated for 5 mins followed by substrate addition and measured after 30 to 60 mins in presence of ATP by HTRF assay relative to control.
Data set [8] has as its target Mitogen-activated protein kinase 9 (Homo sapiens) (UniProt P45984). The experiment in a line: Inhibition of recombinant full length human His-tagged MAPK9 expressed in baculovirus expression system at 1 uM using biotin as substrate preincubated for 5 mins followed by substrate addition and measured after 30 to 60 mins in presence of ATP by HTRF assay relative to control.

The target in data set [9] is cAMP-dependent protein kinase catalytic subunit alpha (Homo sapiens) (UniProt P17612). Briefly: Inhibition of recombinant full length human His-tagged PRKACA expressed in Escherichia coli at 1 uM using biotin as substrate preincubated for 5 mins followed by substrate addition and measured after 30 to 60 mins in presence of ATP by HTRF assay relative to control.
Data set [10] concerns the target Proto-oncogene tyrosine-protein kinase receptor Ret (Homo sapiens) (UniProt P07949). The experiment in a line: Inhibition of recombinant human GST/His6-tagged RET (658 to 1114 residues) expressed in baculovirus infected Sf9 insect cells at 1 uM using biotin as substrate preincubated for 5 mins followed by substrate addition and measured after 30 to 60 mins in presence of ATP by HTRF assay relative to control.

Here are results for 1 molecule from ChEMBL document CHEMBL4373740, “Synthesis and biological evaluation of new MET inhibitors with 1,6-naphthyridinone scaffold” (Eur J Med Chem, 2020).

In general, half-life refers to the time needed for the level to fall by half in the phase considered. Usually AUC(0-inf) stands for the area under the concentration-time curve extrapolated to infinity. What is called MRT is a mean duration of stay, worked out from the concentration-time curve. As usually defined, the inhibition is the share of the control response that was lost under treatment.

Sequence of Inhibitor of nuclear factor kappa-B kinase subunit beta (Homo sapiens) (O14920 whole entry): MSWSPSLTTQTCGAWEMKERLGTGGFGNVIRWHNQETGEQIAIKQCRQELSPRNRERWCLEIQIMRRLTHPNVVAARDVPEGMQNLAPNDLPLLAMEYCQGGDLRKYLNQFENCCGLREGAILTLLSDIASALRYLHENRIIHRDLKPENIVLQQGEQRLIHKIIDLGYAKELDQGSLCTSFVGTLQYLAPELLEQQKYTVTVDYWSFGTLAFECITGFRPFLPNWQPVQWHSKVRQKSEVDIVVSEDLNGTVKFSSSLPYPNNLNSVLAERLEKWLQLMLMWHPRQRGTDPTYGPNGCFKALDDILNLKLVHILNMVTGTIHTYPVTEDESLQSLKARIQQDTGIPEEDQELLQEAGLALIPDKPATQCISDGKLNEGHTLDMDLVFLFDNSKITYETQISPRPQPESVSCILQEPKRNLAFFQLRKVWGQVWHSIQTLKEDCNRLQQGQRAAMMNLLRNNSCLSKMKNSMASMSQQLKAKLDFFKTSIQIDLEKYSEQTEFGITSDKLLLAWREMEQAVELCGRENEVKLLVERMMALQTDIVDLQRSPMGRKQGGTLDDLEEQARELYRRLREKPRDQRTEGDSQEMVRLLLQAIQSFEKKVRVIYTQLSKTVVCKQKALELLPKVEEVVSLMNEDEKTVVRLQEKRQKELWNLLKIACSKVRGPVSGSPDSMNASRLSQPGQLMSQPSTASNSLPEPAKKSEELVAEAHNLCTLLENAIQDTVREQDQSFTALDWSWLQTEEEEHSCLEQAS
Sequence of Tyrosine-protein kinase JAK1 (Homo sapiens) (P23458 whole entry): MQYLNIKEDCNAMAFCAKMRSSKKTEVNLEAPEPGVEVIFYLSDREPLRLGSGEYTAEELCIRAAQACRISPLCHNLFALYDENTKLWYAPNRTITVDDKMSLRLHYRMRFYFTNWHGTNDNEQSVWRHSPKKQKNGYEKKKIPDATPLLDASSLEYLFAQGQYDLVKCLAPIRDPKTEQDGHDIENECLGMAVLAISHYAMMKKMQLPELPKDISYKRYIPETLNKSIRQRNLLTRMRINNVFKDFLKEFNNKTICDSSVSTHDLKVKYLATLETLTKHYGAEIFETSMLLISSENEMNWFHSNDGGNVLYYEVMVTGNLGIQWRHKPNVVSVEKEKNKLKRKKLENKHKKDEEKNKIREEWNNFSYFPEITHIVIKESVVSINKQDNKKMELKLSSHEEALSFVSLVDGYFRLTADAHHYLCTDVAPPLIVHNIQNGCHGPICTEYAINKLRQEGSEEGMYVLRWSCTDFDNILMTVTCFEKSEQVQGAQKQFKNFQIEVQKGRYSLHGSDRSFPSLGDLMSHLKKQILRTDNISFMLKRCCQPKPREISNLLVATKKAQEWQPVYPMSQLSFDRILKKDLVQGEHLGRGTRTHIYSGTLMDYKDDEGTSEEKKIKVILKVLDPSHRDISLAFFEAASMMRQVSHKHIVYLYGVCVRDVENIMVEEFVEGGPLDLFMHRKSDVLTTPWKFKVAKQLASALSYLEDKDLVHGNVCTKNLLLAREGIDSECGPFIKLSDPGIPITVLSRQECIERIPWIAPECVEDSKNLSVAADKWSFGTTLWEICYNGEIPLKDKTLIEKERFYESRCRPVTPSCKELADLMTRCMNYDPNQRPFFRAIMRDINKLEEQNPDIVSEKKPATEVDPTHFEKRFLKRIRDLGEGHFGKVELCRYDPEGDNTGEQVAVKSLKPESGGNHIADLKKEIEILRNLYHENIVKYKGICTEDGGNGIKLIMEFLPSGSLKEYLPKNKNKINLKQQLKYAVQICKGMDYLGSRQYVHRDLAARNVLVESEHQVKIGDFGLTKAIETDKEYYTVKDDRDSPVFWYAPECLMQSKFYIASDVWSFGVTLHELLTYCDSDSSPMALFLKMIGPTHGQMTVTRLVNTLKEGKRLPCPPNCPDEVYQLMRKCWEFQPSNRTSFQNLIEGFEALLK
Sequence of Mitogen-activated protein kinase 9 (Homo sapiens) (P45984 whole entry, looked up): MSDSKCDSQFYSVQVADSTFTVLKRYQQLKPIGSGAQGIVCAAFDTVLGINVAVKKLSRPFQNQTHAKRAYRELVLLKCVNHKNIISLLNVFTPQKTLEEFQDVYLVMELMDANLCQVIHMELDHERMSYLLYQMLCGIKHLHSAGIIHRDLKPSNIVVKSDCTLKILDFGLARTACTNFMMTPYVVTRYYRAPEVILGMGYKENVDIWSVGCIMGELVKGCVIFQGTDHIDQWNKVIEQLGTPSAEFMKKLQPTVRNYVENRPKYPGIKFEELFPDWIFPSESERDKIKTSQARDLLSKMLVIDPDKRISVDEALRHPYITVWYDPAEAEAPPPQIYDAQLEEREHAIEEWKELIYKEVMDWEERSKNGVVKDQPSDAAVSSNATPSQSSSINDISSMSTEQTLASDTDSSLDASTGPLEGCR
Sequence of Vascular endothelial growth factor receptor 3 (P35916 whole entry, the tested form may be a part): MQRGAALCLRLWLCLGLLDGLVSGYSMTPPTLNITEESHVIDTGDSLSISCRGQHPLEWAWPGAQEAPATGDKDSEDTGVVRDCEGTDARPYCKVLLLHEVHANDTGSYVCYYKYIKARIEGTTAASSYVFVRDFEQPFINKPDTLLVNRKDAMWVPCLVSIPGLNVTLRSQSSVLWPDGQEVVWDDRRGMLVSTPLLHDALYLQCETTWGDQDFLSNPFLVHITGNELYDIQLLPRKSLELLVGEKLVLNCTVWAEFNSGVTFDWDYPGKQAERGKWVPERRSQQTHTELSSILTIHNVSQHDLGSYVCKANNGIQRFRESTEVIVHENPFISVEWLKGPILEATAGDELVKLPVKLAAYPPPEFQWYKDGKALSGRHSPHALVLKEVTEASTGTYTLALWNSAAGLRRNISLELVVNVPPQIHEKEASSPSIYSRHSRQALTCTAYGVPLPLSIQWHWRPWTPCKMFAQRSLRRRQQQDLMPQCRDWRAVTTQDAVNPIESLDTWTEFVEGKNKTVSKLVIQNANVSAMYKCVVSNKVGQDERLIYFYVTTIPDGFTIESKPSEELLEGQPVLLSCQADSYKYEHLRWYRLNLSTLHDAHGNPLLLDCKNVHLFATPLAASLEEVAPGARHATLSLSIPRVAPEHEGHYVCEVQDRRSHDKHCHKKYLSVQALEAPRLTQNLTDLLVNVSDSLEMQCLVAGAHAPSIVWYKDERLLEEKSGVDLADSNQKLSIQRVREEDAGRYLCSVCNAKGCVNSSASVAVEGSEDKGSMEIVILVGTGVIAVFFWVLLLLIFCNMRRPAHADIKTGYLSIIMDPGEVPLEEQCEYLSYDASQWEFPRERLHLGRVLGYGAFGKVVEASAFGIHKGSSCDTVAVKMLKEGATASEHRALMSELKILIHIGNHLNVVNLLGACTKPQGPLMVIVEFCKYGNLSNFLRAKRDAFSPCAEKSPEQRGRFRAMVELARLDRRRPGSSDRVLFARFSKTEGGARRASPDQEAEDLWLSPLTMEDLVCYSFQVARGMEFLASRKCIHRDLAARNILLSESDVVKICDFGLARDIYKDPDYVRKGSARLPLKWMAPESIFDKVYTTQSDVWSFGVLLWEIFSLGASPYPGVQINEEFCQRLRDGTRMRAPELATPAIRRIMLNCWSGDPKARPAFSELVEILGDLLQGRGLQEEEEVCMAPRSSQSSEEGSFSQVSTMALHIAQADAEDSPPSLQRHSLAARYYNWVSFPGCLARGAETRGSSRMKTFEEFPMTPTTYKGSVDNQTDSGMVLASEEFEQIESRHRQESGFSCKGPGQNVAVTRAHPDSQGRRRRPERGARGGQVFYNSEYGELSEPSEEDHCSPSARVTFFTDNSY
Sequence of Proto-oncogene tyrosine-protein kinase receptor Ret (Homo sapiens) (P07949 whole entry, the tested form may be a part): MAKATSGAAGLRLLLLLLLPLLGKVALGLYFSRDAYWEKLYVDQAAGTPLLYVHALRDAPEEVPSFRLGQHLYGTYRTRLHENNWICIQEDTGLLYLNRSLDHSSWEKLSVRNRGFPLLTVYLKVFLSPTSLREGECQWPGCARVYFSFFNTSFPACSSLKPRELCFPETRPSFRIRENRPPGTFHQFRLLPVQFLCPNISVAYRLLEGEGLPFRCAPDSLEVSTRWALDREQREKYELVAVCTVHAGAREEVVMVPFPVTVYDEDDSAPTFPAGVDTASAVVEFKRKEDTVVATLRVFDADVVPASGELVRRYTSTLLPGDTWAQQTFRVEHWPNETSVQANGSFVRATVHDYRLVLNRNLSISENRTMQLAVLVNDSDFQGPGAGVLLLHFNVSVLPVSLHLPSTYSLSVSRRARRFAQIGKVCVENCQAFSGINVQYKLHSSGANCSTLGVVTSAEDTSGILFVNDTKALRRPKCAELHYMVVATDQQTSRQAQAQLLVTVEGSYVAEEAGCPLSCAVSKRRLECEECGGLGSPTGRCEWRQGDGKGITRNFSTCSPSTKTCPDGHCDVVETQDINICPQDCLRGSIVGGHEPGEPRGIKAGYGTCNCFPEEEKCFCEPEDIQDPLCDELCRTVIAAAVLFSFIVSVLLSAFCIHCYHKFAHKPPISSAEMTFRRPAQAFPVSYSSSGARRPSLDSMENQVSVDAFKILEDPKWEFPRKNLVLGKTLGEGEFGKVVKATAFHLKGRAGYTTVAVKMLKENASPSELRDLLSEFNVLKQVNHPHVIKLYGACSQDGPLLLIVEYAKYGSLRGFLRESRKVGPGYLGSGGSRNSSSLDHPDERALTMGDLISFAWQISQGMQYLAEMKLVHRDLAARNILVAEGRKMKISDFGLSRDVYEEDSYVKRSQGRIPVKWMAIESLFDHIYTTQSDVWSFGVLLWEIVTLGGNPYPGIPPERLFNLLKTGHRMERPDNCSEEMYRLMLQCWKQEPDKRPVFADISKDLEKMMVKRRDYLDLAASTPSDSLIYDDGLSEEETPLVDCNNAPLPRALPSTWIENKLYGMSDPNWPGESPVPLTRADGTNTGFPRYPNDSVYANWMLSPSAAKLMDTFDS

`Cn1cc(-c2ccc(F)cc2)c(=O)c2c(Nc3ccc(Oc4ccnc(NC(=O)C5CC5)c4)c(F)c3)nccc21` had a half-life in data set [1] of 20.6 h. Also, the area under the curve AUC(0-inf) in data set [2] amounted to 233 µg·h/mL. Besides, the MRT in data set [3] was 10.8 h. Moreover, the inhibition in [4], in data set [5], in [6], in [7], in data set [8] and in data set [9] was under 50% in each case. The inhibition in data set [10] is under 50%.
